Assay results taken from patent US8829185B2 (Bayer HealthCare LLC, priority 2005, dated 2014).

The molecules below were run against T1, FGFR1-GST (Homo sapiens, UniProt P11362) (assay: FGFR-1 TR-FRET biochemical assay). Conditions: bounds given in nM.
T1 construct: GST; made in house
Procedure: FGFR-1 TR-FRET Biochemical Assay
The FGFR-1 Assay was performed on half well 96-well opaque plates (Costar 3915) in a LANCE format. LANCE is a homogenous time resolved fluormetry based application available through Perkin Elmer. For this assay, 50 uL reactions were set up using: 0.6 uM ATP (Sigma), 25 nM poly GT-biotin (CIS BIO International), 2 nM Eu-labelled phospho-Tyr Ab (PY20 PerkinElmer), 10 nM Streptavidin-APC (Perkin Elmer), 5 nM FGFR1-GST (generated by DRT, Bayer Healthcare), 1% DMSO, 50 mM HEPES pH 7.5, 10 mM MgCl2, 0.1 mM EDTA, 0.015% Brij, 0.1 mg/ml BSA, 0.1% B-mercaptoethanol. All reactions were initiated with the addition of enzyme and were left to incubate for one hour at room temperature. Time-resolved fluorescence was then read on a Perkin Elmer VictorV Multilabel counter. The reading protocol uses an excitation wavelength at 340 nm and emission reads at both 615 and 665 nm. Signal was calculated as a ratio: (Fluorescence at 665 nm/Fluorescence at […])*10000 for each well. The background control used for this assay is the signal produced with all assay components excluding ATP. For IC50 generation, compounds were added prior to the enzyme initiation. A 50-fold stock plate was made with compounds serially diluted 1:5 in a 50% DMSO/50% dH2O solution. A 1 μL addition of the stock to the assay wells gave final compound concentrations ranging from 10 μM −0.128 nM in 1% DMSO. The data were expressed as percent inhibition: % inhibition=100−((Signal with inhibitor-background)/(Signal without inhibitor−background))*100.

T1 sequence (P11362 22-822): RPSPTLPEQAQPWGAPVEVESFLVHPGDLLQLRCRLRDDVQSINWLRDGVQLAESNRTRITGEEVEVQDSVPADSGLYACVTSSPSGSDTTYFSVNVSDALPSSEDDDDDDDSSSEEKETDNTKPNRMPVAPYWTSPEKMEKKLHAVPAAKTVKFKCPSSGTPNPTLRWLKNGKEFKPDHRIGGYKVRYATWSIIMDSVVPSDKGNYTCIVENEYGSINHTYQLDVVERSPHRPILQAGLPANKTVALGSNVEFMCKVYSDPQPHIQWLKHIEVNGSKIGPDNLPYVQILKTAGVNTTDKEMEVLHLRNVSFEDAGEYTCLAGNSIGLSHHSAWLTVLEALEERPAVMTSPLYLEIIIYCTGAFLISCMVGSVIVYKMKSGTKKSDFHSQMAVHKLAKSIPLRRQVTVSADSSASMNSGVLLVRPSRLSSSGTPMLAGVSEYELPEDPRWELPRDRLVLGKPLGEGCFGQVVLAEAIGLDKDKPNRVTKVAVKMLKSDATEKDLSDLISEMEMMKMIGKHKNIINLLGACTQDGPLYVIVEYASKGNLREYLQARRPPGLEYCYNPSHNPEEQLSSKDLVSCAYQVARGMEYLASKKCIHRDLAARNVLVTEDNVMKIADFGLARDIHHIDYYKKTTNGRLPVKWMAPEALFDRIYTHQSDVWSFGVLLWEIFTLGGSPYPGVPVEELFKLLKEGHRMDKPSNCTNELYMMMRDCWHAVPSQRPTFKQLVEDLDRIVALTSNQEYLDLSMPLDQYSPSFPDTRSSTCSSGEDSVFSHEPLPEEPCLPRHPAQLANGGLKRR

Row | SMILES | IC50 [nM]
1 | COCc1c(-c2ccc(NC(=O)Nc3cc(C(F)(F)F)ccc3F)cc2)c2c(N)ncnn2c1C#N [Example 11, N-4-[4-amino-7-cyano-6-(methoxy-methyl)pyrrolo[2,1-f][1,2,4]triazin-5-yl]phenyl-N′-[2-fluoro-5-(trifluoromethyl)-phenyl]urea] | > 100
2 | CC(C)(C)C(=O)c1c(-c2ccc(NC(=O)Nc3cc(C(F)(F)F)ccn3)cc2)c2c(N)ncnn2c1CN1CCOCC1 [Example 92, N-{4-[4-amino-6-(2,2-dimethylpropanoyl)-7-(morpholin-4-ylmethyl)pyrrolo[2,1-f][1,2,4]triazin-5-yl]phenyl}-N′-[4-(trifluoromethyl)-pyridin-2-yl]urea] | > 100
3 | COCCNCc1c(-c2ccc(NC(=O)Nc3cc(C(F)(F)F)ccc3F)cc2)c2c(N)ncnn2c1CN1CCOCC1 [Example 108, N-4-[4-amino-6-[(2-methoxyethyl)amino]methyl-7-(morpholin-4-ylmethyl)pyrrolo[2,1-f][1,2,4]triazin-5-yl]phenyl-N′-[2-fluoro-5-(trifluoromethyl)phenyl]urea] | > 100
4 | COCc1c(-c2ccc(NC(=O)Nc3cc(C(F)(F)F)ccc3F)c(F)c2)c2c(N)ncnn2c1C1CCNCC1 [Example 149, 1-{4-[4-amino-6-(methoxymethyl)-7-piperidin-4-ylpyrrolo[2,1-f][1,2,4]triazin-5-yl]-2-fluorophenyl}-3-[2-fluoro-5-(trifluoro-methyl)phenyl]urea] | 10 to 100
5 | COCc1c(-c2ccc(NC(=O)Nc3cc(C)ccc3F)c(F)c2)c2c(N)ncnn2c1CN1CCCOCC1 [Example 140, N-{4-[4-amino-6-(methoxymethyl)-7-(1,4-oxazepan-4-ylmethyl)-pyrrolo[2,1-f][1,2,4]triazin-5-yl]-2-fluorophenyl}-N′-(2-fluoro-5-methylphenyl)urea] | 10 to 100
6 | Nc1ncnn2c(CN3CCOCC3)c(Cl)c(-c3ccc(NC(=O)Nc4cc(C(F)(F)F)ccc4Cl)c(F)c3)c12 [Example 159, N-{4-[4-amino-6-chloro-7-(morpholin-4-ylmethyl)pyrrolo[2,1-f][1,2,4]triazin-5-yl]-2-fluorophenyl}-N′-[2-chloro-5-(trifluoromethyl)-phenyl]urea] | 10 to 100
7 | COCc1c(-c2ccc(NC(=O)Nc3cc(C(F)(F)F)ccc3F)cc2)c2c(N)ncnn2c1COC [Example 24, N-{4-[4-amino-6,7-bis(methoxymethyl)pyrrolo[2,1-f]-[1,2,4]triazin-5-yl]phenyl}-N′-[2-fluoro-5-(trifluoromethyl)phenyl]urea] | 10 to 100
8 | CC(C)(O)c1c(-c2ccc(NC(=O)Nc3cc(C(F)(F)F)ccn3)cc2)c2c(N)ncnn2c1CN1CCOCC1 [Example 86] | > 100
9 | CC(O)c1c(-c2ccc(NC(=O)Nc3cc(C(F)(F)F)ccc3F)cc2)c2c(N)ncnn2c1CN1CCOCC1 (stereo not drawn) [Example 104, N-4-[4-amino-6-(1-hydroxyethyl)-7-(morpholin-4-ylmethyl)-pyrrolo[2,1-f][1,2,4]triazin-5-yl]phenyl-N′-[2-fluoro-5-(trifluoromethyl)-phenyl]urea] | 10 to 100

Further lines, results first:

Row | IC50 [nM] | SMILES
10 | 10 to 100 | Nc1ncnn2c(CN3CCOCC3)c(C(O)C3CC3)c(-c3ccc(NC(=O)Nc4cc(C(F)(F)F)ccc4F)cc3)c12 (stereo not drawn) [Example 106, N-4-[4-amino-6-[cyclopropyl(hydroxy)methyl]-7-(morpholin-4-ylmethyl)pyrrolo[2,1-f][1,2,4]triazin-5-yl]phenyl-N′-[2-fluoro-5-(trifluoromethyl)phenyl]urea]
11 | 10 to 100 | COCc1c(-c2ccc(NC(=O)Nc3cc(C(F)(F)F)ccc3F)cc2)c2c(N)ncnn2c1CN1CCCC1 [Example 14, N-{4-[4-amino-6-(methoxymethyl)-7-(pyrrolidin-1-ylmethyl)pyrrolo[2,1-f][1,2,4]triazin-5-yl]phenyl}-N′-[2-fluoro-5-(trifluoromethyl)phenyl]urea]
12 | 10 to 100 | Nc1ncnn2c(CN3CCOCC3)c(CO)c(-c3ccc(NC(=O)Nc4cc(C(F)(F)F)ccn4)c(F)c3)c12 [Example 114, N-{4-[4-amino-6-(hydroxymethyl)-7-(morpholin-4-ylmethyl)pyrrolo[2,1-f][1,2,4]triazin-5-yl]-2-fluorophenyl}-N′-[4-(trifluoromethyl)pyridin-2-yl]urea]
13 | < 10 | CN1CCN(Cc2c(-c3cnco3)c(-c3ccc(NC(=O)Nc4cc(C(F)(F)F)ccc4F)cc3)c3c(N)ncnn23)CC1 [Example 31, N-4-[4-amino-7-[(4-methylpiperazin-1-yl)methyl]-6-(1,3-oxazol-5-yl)pyrrolo[2,1-f][1,2,4]triazin-5-yl]phenyl-N′-[2-fluoro-5-(trifluoromethyl)phenyl]urea]
14 | 10 to 100 | CNCc1c(-c2ccc(NC(=O)Nc3cc(C(F)(F)F)ccc3F)cc2)c2c(N)ncnn2c1CN1CCOCC1 [Example 109, N-4-[4-amino-6-[(methylamino)methyl]-7-(morpholin-4-ylmethyl)pyrrolo[2,1-f][1,2,4]triazin-5-yl]phenyl-N′-[2-fluoro-5-(trifluoromethyl)phenyl]urea]
15 | < 10 | CC(=O)N1CCN(Cc2c(-c3cnco3)c(-c3ccc(NC(=O)Nc4cc(C(F)(F)F)ccc4F)cc3)c3c(N)ncnn23)CC1 [Example 32, N-4-[7-[(4-acetylpiperazin-1-yl)methyl]-4-amino-6-(1,3-oxazol-5-yl)pyrrolo[2,1-f][1,2,4]triazin-5-yl]phenyl-N′-[2-fluoro-5-(trifluoromethyl)phenyl]urea]
16 | < 10 | COCc1c(-c2ccc(NC(=O)Nc3cc(C(F)(F)F)ccc3F)c(F)c2)c2c(N)ncnn2c1CN1CCNC(=O)C1 [Example 44, N-(4-{4-amino-6-(methoxymethyl)-7-[(3-oxopiperazin-1-yl)methyl]pyrrolo[2,1-f][1,2,4]triazin-5-yl}-2-fluorophenyl)-N′-[2-fluoro-5-(trifluoromethyl)phenyl]urea]
17 | < 10 | Nc1ncnn2c(CN3CCOCC3)c(/C=N/O)c(-c3ccc(NC(=O)Nc4cc(C(F)(F)F)ccc4F)cc3)c12 [Example 102, N-4-[4-amino-6-[(E)-(hydroxyimino)methyl]-7-(morpholin-4-ylmethyl)pyrrolo[2,1-f][1,2,4]triazin-5-yl]phenyl-N′-[2-fluoro-5-(trifluoromethyl)phenyl]urea]
18 | < 10 | Nc1ncnn2c(CN3CCOCC3)c(-c3cnco3)c(-c3ccc(NC(=O)Nc4cccc(OC(F)(F)F)c4)cc3)c12 [Example 28, N-4-[4-amino-7-(morpholin-4-ylmethyl)-6-(1,3-oxazol-5-yl)pyrrolo[2,1-f][1,2,4]triazin-5-yl]phenyl-N′-[3-(trifluoromethoxy)-phenyl]urea]
19 | < 10 | COCc1c(-c2ccc(NC(=O)Nc3cc(C)ccc3F)c(F)c2)c2c(N)ncnn2c1CN1CCOCC1 [Example 131, N-{4-[4-amino-6-(methoxymethyl)-7-(morpholin-4-ylmethyl)-pyrrolo[2,1-f][1,2,4]triazin-5-yl]-2-fluorophenyl}-N′-(2-fluoro-5-methyl-phenyl)urea]
20 | < 10 | COCc1c(-c2ccc(NC(=O)Nc3cc(C(F)(F)F)ccc3F)cc2)c2c(N)ncnn2c1CN1CCNC(=O)C1 [Example 19, N-(4-{4-amino-6-(methoxymethyl)-7-[(3-oxopiperazin-1-yl)methyl]pyrrolo[2,1-f][1,2,4]triazin-5-yl}phenyl)-N′-[2-fluoro-5-(trifluoromethyl)phenyl]urea]

Same assay, conditions: upper bound in μM

Row | IC50 [nM] | SMILES
21 | < 1000 | COCc1c(-c2ccc(NC(=O)Nc3cc(C(F)(F)F)ccc3F)cc2)c2c(N)ncnn2c1C#N [Example 11, N-4-[4-amino-7-cyano-6-(methoxy-methyl)pyrrolo[2,1-f][1,2,4]triazin-5-yl]phenyl-N′-[2-fluoro-5-(trifluoromethyl)-phenyl]urea]
22 | < 1000 | CC(C)(C)C(=O)c1c(-c2ccc(NC(=O)Nc3cc(C(F)(F)F)ccn3)cc2)c2c(N)ncnn2c1CN1CCOCC1 [Example 92, N-{4-[4-amino-6-(2,2-dimethylpropanoyl)-7-(morpholin-4-ylmethyl)pyrrolo[2,1-f][1,2,4]triazin-5-yl]phenyl}-N′-[4-(trifluoromethyl)-pyridin-2-yl]urea]
23 | < 1000 | COCCNCc1c(-c2ccc(NC(=O)Nc3cc(C(F)(F)F)ccc3F)cc2)c2c(N)ncnn2c1CN1CCOCC1 [Example 108, N-4-[4-amino-6-[(2-methoxyethyl)amino]methyl-7-(morpholin-4-ylmethyl)pyrrolo[2,1-f][1,2,4]triazin-5-yl]phenyl-N′-[2-fluoro-5-(trifluoromethyl)phenyl]urea]
24 | < 1000 | CC(C)(O)c1c(-c2ccc(NC(=O)Nc3cc(C(F)(F)F)ccn3)cc2)c2c(N)ncnn2c1CN1CCOCC1 [Example 86]
